These results are taken from patent US8329904B2, “Azacyclic derivatives” (Hoffmann-La Roche Inc., priority 2009, dated 2012).

For the assay, the target named is T1, human HSL (Homo sapiens, UniProt Q05469).
T1 construct: overlapping PCR to generate a full length human HSL ORF with a 3′-His6 tag; His6 (C); made in house; host or cells: High 5 insect cells (baculovirus, pFast-BAC)
T1 sequence (Q05469 1-1076): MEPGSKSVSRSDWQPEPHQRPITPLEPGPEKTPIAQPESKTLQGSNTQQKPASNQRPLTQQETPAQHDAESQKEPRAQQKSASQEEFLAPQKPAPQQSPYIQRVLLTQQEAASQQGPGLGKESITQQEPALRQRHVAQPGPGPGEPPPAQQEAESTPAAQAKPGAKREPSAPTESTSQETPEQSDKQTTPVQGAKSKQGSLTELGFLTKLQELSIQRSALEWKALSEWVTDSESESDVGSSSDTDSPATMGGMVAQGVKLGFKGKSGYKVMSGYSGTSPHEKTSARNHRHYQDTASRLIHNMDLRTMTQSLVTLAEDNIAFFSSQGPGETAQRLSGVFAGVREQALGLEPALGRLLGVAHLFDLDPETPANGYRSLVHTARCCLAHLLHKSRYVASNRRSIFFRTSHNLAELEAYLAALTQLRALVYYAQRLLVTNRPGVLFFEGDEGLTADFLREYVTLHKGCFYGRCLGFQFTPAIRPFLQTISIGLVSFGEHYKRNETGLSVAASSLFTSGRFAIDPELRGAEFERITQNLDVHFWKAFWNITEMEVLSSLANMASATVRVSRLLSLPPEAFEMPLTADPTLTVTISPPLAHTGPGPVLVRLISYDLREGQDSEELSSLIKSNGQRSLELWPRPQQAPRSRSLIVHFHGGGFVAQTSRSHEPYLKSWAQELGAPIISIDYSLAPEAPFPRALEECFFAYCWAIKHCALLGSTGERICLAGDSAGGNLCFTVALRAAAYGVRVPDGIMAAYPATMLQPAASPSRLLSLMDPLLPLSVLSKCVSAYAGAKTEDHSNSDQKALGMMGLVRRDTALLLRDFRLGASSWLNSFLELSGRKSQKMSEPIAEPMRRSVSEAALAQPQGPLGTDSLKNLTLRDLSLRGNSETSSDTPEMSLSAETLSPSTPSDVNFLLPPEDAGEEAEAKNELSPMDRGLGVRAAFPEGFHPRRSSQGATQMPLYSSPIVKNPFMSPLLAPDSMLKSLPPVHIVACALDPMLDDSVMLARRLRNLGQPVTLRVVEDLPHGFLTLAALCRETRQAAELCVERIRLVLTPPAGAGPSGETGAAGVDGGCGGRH
Description: Human Hormone-Sensitive Lipase (HSL) Enzyme Inhibition Assay. It is filed as biochemical. The note with it: colorimetric assay, 2,3-dimercapto-1-propanol tributyrate (DMPT) substrate, 37° C. for 20 minutes, absorbance at 405 nm; read-out: HSL hum IC50. The essentials: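 Colorimetric thioester hydrolysis: compounds in DMSO series mixed with DMPT (1.5 mM) in MOPS pH 7.2 with BSA, then baculovirus-expressed His6-tagged full-length human HSL added, 37° C, 20 min. DTNB plus detergents added, 15 min room temperature, absorbance at 405 nm.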
What is called IC50 is the concentration that inhibits the measured activity by half. Regarding `CC1(C(=O)N2CCC3(CC2)CCN(c2ccc(OCC(F)(F)F)cc2)C3=O)CC1(Cl)Cl` (stereo not shown) [Example 121, 8-(2,2-Dichloro-1-methyl-cyclopropanecarbonyl)-2-[4-(2,2,2-trifluoro-ethoxy)-phenyl]-2,8-diaza-spiro[4.5]decan-1-one], the IC50 turned out to be 200 nM.
Regarding `CCN(Cc1ccncc1)C(=O)N1CCC2(CC1)CCN(c1ccc(OC(F)(F)F)cc1)C2=O` [Example 307, 1-Oxo-2-(4-trifluoromethoxy-phenyl)-2,8-diaza-spiro[4.5]decane-8-carboxylic acid ethyl-pyridin-4-ylmethyl-amide], the IC50 was 350 nM.
To `COCCCOc1ccc(N2CCC3(CCN(S(=O)(=O)c4ccccc4OC(F)(F)F)CC3)C2=O)cc1` [Example 109, 2-[4-(3-Methoxy-propoxy)-phenyl]-8-(2-trifluoromethoxy-benzenesulfonyl)-2,8-diaza-spiro[4.5]decan-1-one] belongs 40 nM; to `CCCN(CC)C(=O)N1CCC2(CC1)CCN(c1ccc(OC(F)(F)F)cc1)C2=O` [Example 268, 1-Oxo-2-(4-trifluoromethoxy-phenyl)-2,8-diaza-spiro[4.5]decane-8-carboxylic acid ethyl-propyl-amide], 220 nM.
With `CC(C)CN(C)C(=O)N1CCC2(CC1)CCN(c1ccc(C3CC3)cc1)C2=O` [Example 313, 2-(4-Cyclopropyl-phenyl)-1-oxo-2,8-diaza-spiro[4.5]decane-8-carboxylic acid isobutyl-methyl-amide], the IC50 was found to be 90 nM.
In the case of `CCC(C)(O)CC(=O)N1CCC2(CC1)CCN(c1ccc(OC(F)(F)F)cc1)C2=O` (stereo not shown) [Example 215, 8-(3-Hydroxy-3-methyl-pentanoyl)-2-(4-trifluoromethoxy-phenyl)-2,8-diaza-spiro[4.5]decan-1-one] it was 470 nM; in that of `O=C1N(c2ccc(C3(O)COC3)cc2)CCC12CCN(S(=O)(=O)c1ccccc1Cl)CC2` [Example 229, 8-(2-Chloro-benzenesulfonyl)-2-[4-(3-hydroxy-oxetan-3-yl)-phenyl]-2,8-diaza-spiro[4.5]decan-1-one], 240 nM; in that of `Cc1noc(C)c1S(=O)(=O)N1CCC2(CCN(c3ccc(OC(F)(F)F)cc3)C2=O)CC1` [Example 186, 8-(3,5-Dimethyl-isoxazole-4-sulfonyl)-2-(4-trifluoromethoxy-phenyl)-2,8-diaza-spiro[4.5]decan-1-one], 110 nM.
With `CNc1ncccc1S(=O)(=O)N1CCC2(CCN(c3ccc(OCC(F)(F)F)cc3)C2=O)CC1` [Example 207, 8-(2-Methylamino-pyridine-3-sulfonyl)-2-[4-(2,2,2-trifluoro-ethoxy)-phenyl]-2,8-diaza-spiro[4.5]decan-1-one], the 50% inhibitory concentration (IC50) is 60 nM.
In the case of `CC(C(=O)N1CCC2(CC1)CCN(c1ccc(OC(F)(F)F)cc1)C2=O)c1ccccc1` (stereo not shown) [Example 222, 8-(2-Phenyl-propionyl)-2-(4-trifluoromethoxy-phenyl)-2,8-diaza-spiro[4.5]decan-1-one] it was 100 nM; in that of `O=C1N(c2ccc(C3CC3)cc2)CCC12CCN(S(=O)(=O)c1ccccc1C(F)(F)F)CC2` [Example 71, 2-(4-Cyclopropyl-phenyl)-8-(2-trifluoromethyl-benzenesulfonyl)-2,8-diaza-spiro[4.5]decan-1-one], 80 nM; in that of `O=C1N(c2ccc(OC(F)(F)F)cc2)CCC12CCN(S(=O)(=O)CC1(O)CCCC1)CC2` [Example 210, 8-(1-Hydroxy-cyclopentylmethanesulfonyl)-2-(4-trifluoromethoxy-phenyl)-2,8-diaza-spiro[4.5]decan-1-one], 60 nM.
Turning to `O=C1N(c2cccnc2)CCC12CCN(S(=O)(=O)c1ccccc1)CC2` [Example 12, 8-Benzenesulfonyl-2-pyridin-3-yl-2,8-diaza-spiro[4.5]decan-1-one], the concentration for half-maximal inhibition (IC50) came to 26000 nM.
In the case of `O=C1N(CCc2ccccc2Cl)CCC12CCN(S(=O)(=O)c1ccccc1Cl)CC2` [Example 242, 8-(2-Chloro-benzenesulfonyl)-2-[2-(2-chloro-phenyl)-ethyl]-2,8-diaza-spiro[4.5]decan-1-one] it was 210 nM; in that of `CCOCc1ccc(N2CCCC3(CCN(S(=O)(=O)c4ccccc4Cl)CC3)C2=O)cc1` [Example 159, 9-(2-Chloro-benzenesulfonyl)-2-(4-ethoxymethyl-phenyl)-2,9-diaza-spiro[5.5]undecan-1-one], 300 nM; in that of `CC(C)(C)CC(=O)N1CCC2(CC1)CCN(c1ccc(OCC(F)(F)F)cc1)C2=O` [Example 120, 8-(3,3-Dimethyl-butyryl)-2-[4-(2,2,2-trifluoro-ethoxy)-phenyl]-2,8-diaza-spiro[4.5]decan-1-one], 600 nM.
To `CC(C)Oc1ccc(N2CCC3(CCN(S(=O)(=O)C4CC4)CC3)C2=O)cc1` [Example 95, 8-Cyclopropanesulfonyl-2-(4-isopropoxy-phenyl)-2,8-diaza-spiro[4.5]decan-1-one] belongs 360 nM.
As to `O=C1N(c2ccc(OC(F)(F)F)cc2)CCC12CCN(S(=O)(=O)C1CC1)CC2` [Example 96, 8-Cyclopropanesulfonyl-2-(4-trifluoromethoxy-phenyl)-2,8-diaza-spiro[4.5]decan-1-one], the concentration for half-maximal inhibition (IC50) came to 130 nM.
In the case of `O=C1N(c2ccc(OC3CCOC3)cc2)CCC12CCN(S(=O)(=O)c1ccccc1Cl)CC2` (stereo not shown) [Example 129, 8-(2-Chloro-benzenesulfonyl)-2-[4-(tetrahydro-furan-3-yloxy)-phenyl]-2,8-diaza-spiro[4.5]decan-1-one] it was 40 nM.
To `CCCCN(CC)C(=O)N1CCC2(CC1)CCN(c1ccc(OC(F)(F)F)cc1)C2=O` [Example 303, 1-Oxo-2-(4-trifluoromethoxy-phenyl)-2,8-diaza-spiro[4.5]decane-8-carboxylic acid butyl-ethyl-amide] belongs 140 nM; to `CCOCc1ccc(N2CCC3(CCN(S(=O)(=O)c4ccccc4Cl)CC3)C2=O)cc1` [Example 149, 8-(2-Chloro-benzenesulfonyl)-2-(4-ethoxymethyl-phenyl)-2,8-diaza-spiro[4.5]decan-1-one], 40 nM.
To `CC(C)(O)c1ccc(N2CCC3(CCN(S(=O)(=O)c4ccccc4C(F)(F)F)CC3)C2=O)cc1` [Example 174, 2-[4-(1-Hydroxy-1-methyl-ethyl)-phenyl]-8-(2-trifluoromethyl-benzenesulfonyl)-2,8-diaza-spiro[4.5]decan-1-one] belongs 60 nM; to `COC(=O)c1ccc(N2CCC3(CCN(S(=O)(=O)c4ccccc4Cl)CC3)C2=O)cc1` [Example 150, 8 4-[8-(2-Chloro-benzenesulfonyl)-1-oxo-2,8-diaza-spiro[4.5]dec-2-yl]-benzoic acid methyl ester], 40 nM.
Turning to `O=C1N(c2ccc(OC(F)(F)F)cc2)CCC12CCN(S(=O)(=O)c1cnccc1Cl)CC2` [Example 199, 8-(4-Chloro-pyridine-3-sulfonyl)-2-(4-trifluoromethoxy-phenyl)-2,8-diaza-spiro[4.5]decan-1-one], the half-maximal inhibitory concentration (IC50) was 140 nM.
Regarding `O=C1N(CCc2ccccc2)CCC12CCN(S(=O)(=O)c1ccccc1Cl)CC2` [Example 236, 8-(2-Chloro-benzenesulfonyl)-2-phenethyl-2,8-diaza-spiro[4.5]decan-1-one], the half-inhibitory concentration (IC50) was found to be 50 nM.
